Test results: patent US5686424A, “2-oxoethyl derivatives as immunosuppressants” (Miles Inc., priority 1995, dated 1997)
Where a name gives a salt, the structure may show the parent alone. Read-outs that look alike come from different tables or passages of the source.

Assays:
[1] = target: FKBP (Homo sapiens, UniProt P62942); test: PPIase Inhibition Assay; format: biochemical
How it was run: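 Rates from p-nitroaniline release at 390 nm over 90 sec, fitted first-order, were converted to % activity remaining relative to uncatalyzed and uninhibited rates, with IC50 from linear regression of V-/V+ against inhibitor level. FKBP acted on Suc-Ala-Phe-Pro-Phe-pNA with excess chymotrypsin, HEPES pH 7.8, cold buffer.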

[2] = tested on: graft versus host response; test: Mouse Lymph Node Assay for Modulation of Graft versus Host Response; format: in vivo; details: mice, 100 mg/kg per day intraperitoneal, after 7 days; popliteal lymph nodes, C57 B1/6-injected limb divided by BDF1-injected limb
From the text: 4) Graft versus Host Assay
Transfer of parental strain T-cells (the graft) into F1 hybrid animals (the host) major different with respect to gene products of the histocompatibility complex (MHC) causes a GVHR. This reaction results from recognition of host allogeneic MHC gene products by specific clones of graft T-cells.
When given systemically in sufficient numbers, the graft T-cells cause a progressive, generally fatal, wasting syndrome. A local, nonfatal GVHR, marked by enlargement of the draining popliteal lymph nodes, ensues when graft T-cells are administered via the footpad as described by Ford et al., 1970, Transplantation 10:258. The GVHR is regarded as a correlate of allograft rejections where specific T-cells of either host or allograft origin are activated after recognition of allogeneic MHC gene products, leading to an immune inflammatory response which ultimately results in the destruction (rejection) of the allograft.
Mouse Lymph Node Assay for Modulation of Graft versus Host Response […]
After 7 days, the draining popliteal lymph nodes from the hind limbs were dissected out and weighed. The magnitude of the GVHR was expressed as the ratio of the mean weight of lymph nodes from the limb injected with semi-allogeneic C57 B1/6 cells divided by the mean weight of lymph nodes from the limb injected with syngeneic BDF1 cells.

[3] = tested on: human T-cells; test: Suppression of Human T-Cell Proliferation Assay (PHA-stimulated, [3H]-thymidine incorporation); format: cell-based; details: read-out: IC50
How it was run: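 Read-out is scintillation counting of [3H]-thymidine pulsed for the last 6 h of a 72 h, 37° C culture. Human T-cells, isolated from LeukoPaks by Lymphoprep and sheep-erythrocyte rosetting, were PHA-M activated (40 μg/ml stock) with compound dilutions added in duplicate wells.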

[4] = tested on: NF-AT; test: NF-AT Inhibition Assay Directed β-Galactosidase Expression in FGL-5 cells; format: cell-based
How it was run: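 FGL-5 Jurkat cells (3 million cells/ml) carry NF-AT-site-driven lacZ. They were stimulated with phorbol dibutyrate plus ionomycin and incubated with compound 16-18 h at 37 °C, in duplicate wells with matched ethanol or DMSO vehicle controls. β-Galactosidase was read as fluorescence from 4-methylumbelliferyl-β-D-galactoside cleavage, giving percent inhibition.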

[5] = concentration of inhibitor required for 50% inhibition of enzyme activity, FKBP, substrate Succinyl-Ala-Phe-Pro-Phe-para-nitroanilide, TABLE I
[6] = concentration inhibiting [3H]-thymidine incorporation of PHA-stimulated T-cells by 50%, 72 hours, TABLE 2
[7] = 50% inhibition of NF-AT directed β-galactosidase activity in FGL-5 cells stimulated with phorbol dibutyrate and ionomycin, TABLE 3

Chain of FKBP (P62942 whole entry): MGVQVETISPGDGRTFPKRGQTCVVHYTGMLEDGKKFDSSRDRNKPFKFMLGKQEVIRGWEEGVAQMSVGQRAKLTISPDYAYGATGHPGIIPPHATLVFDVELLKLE

Question: Which results are given for CC[C@H](C)[C@H](NC(=O)[C@@H]1CCCN1CC(=O)C12CC3CC(CC(C3)C1)C2)C(=O)NCc1ccccc1 [Example 24, L-Isoleucine, N-[1-(2-Adamantan-1-yl-2-Oxoethyl)-L-Prolyl] Benzylamide]?
Answer: IC50 [1, 5]: 0.06 µM; Lymph Node Weight Ratio [2]: 1.2; IC50 [3, 6]: 12 µM

Question: What does the source list for CC[C@H](C)[C@H](NC(=O)[C@@H]1CCCN1CC(=O)C12CC3CC(CC1C3)C2)C(=O)NCc1ccccc1 [Example 45, L-Isoleucine, N-[1-(2-Oxo-2-Tricyclo[3.3.1.0 ^3,7]Non-3-yl-Ethyl)-L-Prolyl] Benzylamide]?
Answer: IC50 [1, 5]: < 5 µM; IC50 [4, 7]: > 33 µM; IC50 [3, 6]: 20 µM

Question: C=CCOC(=O)Nc1ccc(CCCOC(=O)[C@@H]2CCCN2CC(=O)C23CC4CC(CC(C4)C2)C3)cc1 [Example 160, L-Proline, 1-[2-Adamantan-1-yl-2-Oxoethyl] 3-(4-(N-Carboallyloxy)aminophenyl)propyl Ester Hydrochloride] was tested. Which IC50 [1, 5] did it give?
Answer: > 5 µM

Question: And the IC50 [4, 7]?
Answer: > 15 µM

Question: And the IC50 [3, 6]?
Answer: > 15 µM

Question: For CC[C@H](C)[C@H](NC(=O)[C@@H]1CCCN1CC(=O)c1ccc(Oc2ccccc2)cc1)C(=O)NCc1ccccc1 [Example 109, L-Isoleucine, N-[1-(2-(4-Phenoxyphenyl)-2-Oxoethyl)-L-Prolyl] Benzylamide], which IC50 [1, 5] is on record?
Answer: < 5 µM

Question: What about the IC50 [4, 7] of the same compound?
Answer: > 15 µM

Question: And the IC50 [3, 6]?
Answer: 5 µM

Question: For CC[C@H](C)[C@H](NC(=O)[C@@H]1CCCN1CC(=O)c1cc(OC)c(OC)cc1OC)C(=O)NCc1ccccc1 [Example 117, L-Isoleucine, N-[1-(2-(2,4,5-Trimethoxyphenyl)-2-Oxoethyl)-L-Prolyl] Benzylamide], which IC50 [1, 5] is on record?
Answer: < 5 µM

Question: What about the IC50 [4, 7] of the same compound?
Answer: > 15 µM

Question: What about the IC50 [3, 6] of the same compound?
Answer: > 15 µM

Question: COc1cc(C(=O)CN2CCC[C@H]2C(=O)NCCc2ccc(N)cc2)cc(OC)c1OC [Example 125, L-Proline, 1-[2-(3,4,5-Trimethoxyphenyl)-2-Oxoethyl] 2-(4-aminophenyl)ethylamide Dihydrochloride] was tested. Which IC50 [1, 5] did it give?
Answer: > 5 µM

Question: What about the IC50 [4, 7] of the same compound?
Answer: > 15 µM

Question: What about the IC50 [3, 6] of the same compound?
Answer: > 15 µM

Question: Which results are given for CC[C@H](C)[C@H](NC(=O)[C@@H]1CCCN1CC(=O)c1ccco1)C(=O)NCc1ccccc1 [Example 37, L-Isoleucine, N-[1-(2-Furan-2-yl-2-Oxoethyl)-L-Prolyl] Benzylamide]?
Answer: IC50 [1]: > 50 µM; IC50 [4]: > 100 µM; IC50 [3]: > 100 µM

Question: What does the source list for COc1cc(C(=O)CN2CCC[C@H]2C(=O)N[C@H](C)c2cccc3ccccc23)cc(OC)c1OC [Example 140, L-Proline, 1-[2-(3,4,5-Trimethoxyphenyl)-2-Oxoethyl] 1-(R)-(1-naphthyl)ethylamide Hydrochloride]?
Answer: IC50 [1, 5]: > 5 µM; IC50 [4, 7]: > 33 µM; IC50 [3, 6]: 10 µM

Question: For CC[C@H](C)[C@H](NC(=O)[C@@H]1CCCN1CC(=O)OC1(C)C2CC3CC(C2)CC1C3)C(=O)NCc1ccccc1 (stereo partly drawn) [Example 89, L-Isoleucine, N-[1-(2-(2-Oxy-2-Methyladamant-2-yl)-2-Oxoethyl)-L-Prolyl] Benzylamide], which IC50 [1, 5] is on record?
Answer: 0.12 µM

Question: What about the IC50 [4, 7] of the same compound?
Answer: 5 µM

Question: What about the IC50 [3, 6] of the same compound?
Answer: 8 µM

Question: Which IC50 [1, 5] does the source give for CC[C@H](C)[C@H](NC(=O)[C@@H]1CCCN1CC(=O)OCC=Cc1ccccc1)C(=O)NCc1ccccc1 [Example 84, L-Isoleucine, N-[1-(2-(3-Phenyl-2-Propen-1-Oxy)-2-Oxoethyl)-L-Prolyl] Benzylamide] here?
Answer: 3.2 µM

Question: What about the IC50 [4, 7] of the same compound?
Answer: > 100 µM

Question: What about the IC50 [3, 6] of the same compound?
Answer: > 100 µM

Question: What does the source list for COc1cc(C(=O)CN2CCC[C@H]2C(=O)NC(Cc2ccccc2)c2ccccc2)cc(OC)c1OC (stereo partly drawn) [Example 144, L-Proline, 1-[2-(3,4,5-Trimethoxyphenyl)-2-Oxoethyl] 1,2-DiphenylethylamideHydrochloride]?
Answer: IC50 [1, 5]: > 5 µM; IC50 [4, 7]: > 33 µM; IC50 [3, 6]: 19 µM

Question: For COc1cc(C(=O)CN2CCCC[C@H]2C(=O)N[C@@H](CCc2ccccc2)CC(C)C)cc(OC)c1OC [Example 152, L-Homoproline, 1-[2-(3,4,5-Trimethoxyphenyl)-2-Oxoethyl] (1-(S)-[2'-(S)-methylpropyl]-3-phenylpropyl)-amide], which IC50 [1, 5] is on record?
Answer: > 5 µM

Question: What about the IC50 [4, 7] of the same compound?
Answer: > 15 µM

Question: And the IC50 [3, 6]?
Answer: 8 µM

Question: For COc1cc(C(=O)CN2CCC[C@H]2C(=O)NCCc2ccc(S(N)(=O)=O)cc2)cc(OC)c1OC [Example 130, L-Proline, 1-[2-(3,4,5-Trimethoxyphenyl)-2-Oxoethyl] 2-(4-Sulfamoylphenyl)ethylamide], which IC50 [1, 5] is on record?
Answer: > 5 µM

Question: What about the IC50 [4, 7] of the same compound?
Answer: > 15 µM

Question: What about the IC50 [3, 6] of the same compound?
Answer: 4 µM

Question: What does the source list for C=CCOC(=O)Nc1ccc(CCCOC(=O)[C@@H]2CCCCN2CC(=O)c2cc(OC)c(OC)c(OC)c2)cc1 [Example 159, L-Homoproline, 1-[2-(3,4,5-Trimethoxyphenyl)-2-Oxoethyl] 3-(4-(N-Carboallyloxy)aminophenyl)propyl Ester Hydrochloride]?
Answer: IC50 [1, 5]: > 5 µM; IC50 [4, 7]: 3 µM; IC50 [3, 6]: 10 µM

Question: Which IC50 [1, 5] does the source give for CC[C@H](C)[C@H](NC(=O)[C@@H]1CCCN1CC(=O)c1ccc(OC)c(OC)c1OC)C(=O)NCc1ccccc1 [Example 115, L-Isoleucine, N-[1-(2-(2,3,4-Trimethoxyphenyl)-2-Oxoethyl)-L-Prolyl] Benzylamide] here?
Answer: > 5 µM

Question: And the IC50 [4, 7]?
Answer: > 15 µM

Question: What about the IC50 [3, 6] of the same compound?
Answer: 7 µM
